Reference: article PMC8557474, “Reliability of the AR-CALUX®In Vitro Method Used to Detect Chemicals with (Anti)Androgen Activity: Results of an International Ring Trial” (Toxicological Sciences, 2021)
Converted amounts (≈) assume the structure as drawn.

What was measured:
[1] = Solubility testing (visual inspection, centrifugation, microscopy)
Description: It details the cell cultivation and seeding procedure, the preparation of the reference, control and test chemicals, the procedure for agonist testing and antagonist testing, prescreen runs, and comprehensive runs, as well as data analysis and data interpretation. This SOP also includes references to the SOPs for solubility testing and cytotoxicity testing. […] Solubility was tested both in the solvent and in media under similar circumstances as would be required during the (ant)agonist testing. The initial concentration to be tested was prescribed at 50 mg/ml. Starting from the highest soluble concentration, cytotoxicity was determined with an LDH assay. Visual checking of cytotoxicity in all wells of the plate was however also required for each run.
This included an investigation by heating, centrifugation, microscopy, and visual checking. […] For the purpose of the validation study, the labs were requested to start from 50 mg/ml as the maximal stock concentration to be tested.

[2] = biological target: T1, human androgen receptor (hAR) (Homo sapiens, UniProt P10275); experiment: AR-CALUX antagonist assay (medium spiked with DHT at EC50); format: cell-based
T1 construct: host or cells: U2-OS human osteosarcoma cells (ATCC HTB 96), stably transfected (AR-CALUX cell line)
T1 sequence (P10275 1-920): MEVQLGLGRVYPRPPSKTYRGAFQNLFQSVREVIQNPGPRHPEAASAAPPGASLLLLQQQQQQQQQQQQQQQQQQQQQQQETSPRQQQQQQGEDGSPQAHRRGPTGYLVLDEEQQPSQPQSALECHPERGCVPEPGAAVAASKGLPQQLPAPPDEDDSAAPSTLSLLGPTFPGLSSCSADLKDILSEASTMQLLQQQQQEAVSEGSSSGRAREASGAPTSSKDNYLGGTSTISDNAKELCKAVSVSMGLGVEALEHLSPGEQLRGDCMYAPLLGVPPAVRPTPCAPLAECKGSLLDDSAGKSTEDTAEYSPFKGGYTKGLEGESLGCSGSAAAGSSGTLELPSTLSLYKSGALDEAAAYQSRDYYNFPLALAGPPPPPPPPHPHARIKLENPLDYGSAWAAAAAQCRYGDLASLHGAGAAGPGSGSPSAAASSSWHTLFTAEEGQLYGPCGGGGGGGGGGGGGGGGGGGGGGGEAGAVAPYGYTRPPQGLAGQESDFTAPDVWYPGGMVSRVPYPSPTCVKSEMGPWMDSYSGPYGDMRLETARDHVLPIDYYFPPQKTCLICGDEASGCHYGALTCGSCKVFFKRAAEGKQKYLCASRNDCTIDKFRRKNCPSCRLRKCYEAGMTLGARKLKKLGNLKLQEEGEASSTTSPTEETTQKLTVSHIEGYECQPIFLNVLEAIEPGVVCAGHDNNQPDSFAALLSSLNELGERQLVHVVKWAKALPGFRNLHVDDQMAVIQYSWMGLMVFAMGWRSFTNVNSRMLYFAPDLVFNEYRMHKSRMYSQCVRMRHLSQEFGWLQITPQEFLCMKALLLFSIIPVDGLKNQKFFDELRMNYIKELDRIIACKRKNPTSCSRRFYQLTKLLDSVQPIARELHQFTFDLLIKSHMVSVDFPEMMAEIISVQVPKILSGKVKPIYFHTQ
Description: (§1) The AR-CALUX® cell line was created by BioDetection Systems (BDS). It can be purchased from BDS with a license (https://www.biodetectionsystems.com). The human osteosarcoma cell line U2-OS (ATCC HTB 96) was transfected with 2 constructs: pSG5-neo-hAR carrying the cDNA of a human androgen receptor (hAR) under a constitutive promoter, and, a luciferase reporter gene which is preceded by a triple tandem of AREs in front of a TATA box (3x ARE Luc). […] The AR-CALUX® cell line was obtained from the test method developer BDS. EURL ECVAM prepared a master cell bank and a large working cell bank which were tested for the absence of mycoplasma, bacteria, fungi, and yeast and for the absence of Hepatitis B and C and HIV. In addition, to verifying the authenticity of the cell line, Short Tandem Repeat (STR) profiling was carried out to confirm the test system to be U2-OS cells. […] The laboratories were requested, at the end of each part of the study (Parts 1, 2, and 3), to perform a mycoplasma test of their choice. Additional aliquots were sent to EURL ECVAM for a reanalysis of authenticity.
(§2) Subsequently, the test chemical was assessed with a prescreen run (dilution steps of 10) and simultaneously with the quantitative cytotoxicity test to determine (1) cytotoxic concentrations, (2) the response, and (3) the appropriate dose range to be tested. […] The cytotoxicity test was performed once more. Test chemicals were diluted in media and consisted of 8 serial dilutions. Each dilution was tested in triplicate.
(§3) Each experiment (run) was comprised of a maximum of 6 plates. The first plate would contain 8 serial dilutions of the reference chemical DHT (for agonism) or Flutamide (for antagonism), while the positive and negative controls were added at fixed concentrations. In addition, a solvent control was added (medium without the chemical but with DMSO 0.1%).
For the antagonist assay, the medium was supplemented with DHT at EC50 concentration (standard assay). […] Each antagonist assay was accompanied by a specificity control test carried out on the same plate.
A. Positive (competitive antagonist) when the relative induction (Yc) of the test item is ≤ 80% (REF RPC80) for two or more consecutive concentrations and […]

[3] = biological target: T1, human androgen receptor (hAR); experiment: cell-based; format: cell-based
Description: as §1, §2, §3
A. Positive when the relative induction (Yc) of the test item is ≥ 10% (REF RPC10) for two or more consecutive concentrations.

[4] = DMSO, organic solvent or mixture, thermodynamic from solid, Solubility in DMSO, Lab 1, DMSO, Lab 1, highest tested 50 mg/ml
[5] = DMSO, organic solvent or mixture, thermodynamic from solid, Solubility in DMSO, Lab 2, DMSO, Lab 2, highest tested 50 mg/ml
[6] = DMSO, organic solvent or mixture, thermodynamic from solid, Solubility in DMSO, Lab 3, DMSO, Lab 3, highest tested 50 mg/ml
[7] = DMSO, organic solvent or mixture, thermodynamic from solid, Solubility in DMSO, Lab 4, DMSO, Lab 4, highest tested 50 mg/ml
[8] = assay medium, aqueous buffer, kinetic from dmso stock, Solubility in medium, Lab 1, assay medium, Lab 1
[9] = assay medium, aqueous buffer, kinetic from dmso stock, Solubility in medium, Lab 2, assay medium, Lab 2
[10] = assay medium, aqueous buffer, kinetic from dmso stock, Solubility in medium, Lab 3, assay medium, Lab 3
[11] = assay medium, aqueous buffer, kinetic from dmso stock, Solubility in medium, Lab 4, assay medium, Lab 4
[12] = DMSO, Lab 1, highest tested 50 mg/ml
[13] = DMSO, Lab 2, highest tested 50 mg/ml
[14] = DMSO, Lab 3, highest tested 50 mg/ml
[15] = DMSO, Lab 4, highest tested 50 mg/ml
[16] = aqueous buffer, kinetic from dmso stock, Solubility in medium, Lab 1, assay medium, Lab 1
[17] = aqueous buffer, kinetic from dmso stock, Solubility in medium, Lab 2, assay medium, Lab 2
[18] = aqueous buffer, kinetic from dmso stock, Solubility in medium, Lab 3, assay medium, Lab 3
[19] = aqueous buffer, kinetic from dmso stock, Solubility in medium, Lab 4, assay medium, Lab 4
[20] = organic solvent or mixture, thermodynamic from solid, Solubility in DMSO, Lab 1, DMSO, Lab 1, highest tested 50 mg/ml
[21] = organic solvent or mixture, thermodynamic from solid, Solubility in DMSO, Lab 2, DMSO, Lab 2, highest tested 50 mg/ml
[22] = organic solvent or mixture, thermodynamic from solid, Solubility in DMSO, Lab 3, DMSO, Lab 3, highest tested 50 mg/ml
[23] = organic solvent or mixture, thermodynamic from solid, Solubility in DMSO, Lab 4, DMSO, Lab 4, highest tested 50 mg/ml

Row | Structure (SMILES) | solubility [1, 4] [µg/mL] | solubility [1, 5] [µg/mL] | solubility [1, 6] [µg/mL] | solubility [1, 7] [µg/mL] | solubility [1, 8] [µg/mL] | solubility [1, 9] [µg/mL] | solubility [1, 10] [µg/mL] | solubility [1, 11] [µg/mL] | solubility [1, 16] [µg/mL] | solubility [1, 17] [µg/mL] | solubility [1, 18] [µg/mL] | solubility [1, 19] [µg/mL] | solubility [1, 20] [µg/mL] | solubility [1, 21] [µg/mL] | solubility [1, 22] [µg/mL] | solubility [1, 23] [µg/mL] | other results
1 | CC(=O)O[C@]1(C(C)=O)CC[C@H]2[C@@H]3C[C@H](C)C4=CC(=O)CC[C@]4(C)[C@H]3CC[C@@]21C [Medroxyprogesterone acetate] | 1500 | 15000 | 15000 | 5000 | 1.5 | 5 | 15 | 5 |  |  |  |  |  |  |  |  | 
2 | CCCCC(CC)COC(=O)c1ccccc1C(=O)OCC(CC)CCCC (stereo not drawn) [Diethylhexyl phthalate] |  |  |  |  |  |  |  |  |  |  |  |  |  |  |  |  | Solubility in DMSO, Lab 1 [1, 12]: 15000 µg/mL (≈ 38400 µM); Solubility in DMSO, Lab 2 [1, 13]: > 50000 µg/mL; Solubility in DMSO, Lab 3 [1, 14]: > 50000 µg/mL; Solubility in DMSO, Lab 4 [1, 15]: > 50000 µg/mL; Solubility in medium, Lab 1 ([1]; assay medium, Lab 1): 15 µg/mL (≈ 38.4 µM); Solubility in medium, Lab 2 ([1]; assay medium, Lab 2): 15 µg/mL (≈ 38.4 µM); Solubility in medium, Lab 3 ([1]; assay medium, Lab 3): > 50 µg/mL; Solubility in medium, Lab 4 ([1]; assay medium, Lab 4): > 50 µg/mL
3 | C=CC1(C)OC(=O)N(c2cc(Cl)cc(Cl)c2)C1=O (stereo not drawn) [Vinclozolin] |  |  |  |  |  |  |  |  | 5 (≈ 17.5 µM) | 15 (≈ 52.4 µM) | 15 (≈ 52.4 µM) | 15 (≈ 52.4 µM) | > 50000 | > 50000 | > 50000 | > 50000 | 
4 | CC(O)(CS(=O)(=O)c1ccc(F)cc1)C(=O)Nc1ccc(C#N)c(C(F)(F)F)c1 (stereo not drawn) [Bicalutamide] | > 50000 | > 50000 | > 50000 | > 50000 | > 50 | > 50 | > 50 | > 50 |  |  |  |  |  |  |  |  | 
5 | C[C@]12Cc3c[nH]nc3C[C@@H]1CC[C@@H]1[C@@H]2CC[C@@]2(C)[C@H]1CC[C@]2(C)O [Stanozolol] |  |  |  |  |  |  |  |  | 5 (≈ 15.2 µM) | 5 (≈ 15.2 µM) | 2 (≈ 6.09 µM) | 5 (≈ 15.2 µM) | 5000 (≈ 15200 µM) | > 50000 | 15000 (≈ 45700 µM) | > 50000 | 
6 | C[C@]1(O)CC[C@H]2[C@@H]3CCC4=CC(=O)CC[C@]4(C)[C@@]3(F)[C@@H](O)C[C@@]21C [Fluoxymesterone] |  |  |  |  |  |  |  |  | 5 (≈ 14.9 µM) | 5 (≈ 14.9 µM) | 5 (≈ 14.9 µM) | 15 (≈ 44.6 µM) | > 50000 | 5000 (≈ 14900 µM) | > 50000 | > 50000 | 
7 | C[C@]12C=CC3=C4CCC(=O)C=C4CC[C@H]3[C@@H]1CC[C@@H]2O [17β-Trenbolone] |  |  |  |  |  |  |  |  |  |  |  |  |  |  |  |  | Antagonist classification per run, Lab 1 [2]: N N N; Antagonist classification per run, Lab 2 [2]: N N N; Antagonist classification per run, Lab 3 [2]: − N N; Antagonist classification per run, Lab 4 [2]: N N N; Agonist classification per run, Lab 1 [3]: P P P; Agonist classification per run, Lab 2 [3]: P P P; Agonist classification per run, Lab 3 [3]: P P P; Agonist classification per run, Lab 4 [3]: P P P; EC50 [3]: 0.245 nM
8 | C[C@]12CCC(=O)C[C@@H]1CC[C@@H]1[C@@H]2CC[C@@]2(C)[C@H]1CC[C@]2(C)O [Methyldihydrotestosterone] |  |  |  |  |  |  |  |  |  |  |  |  |  |  |  |  | Solubility in DMSO, Lab 1 [1, 12]: 5000 µg/mL (≈ 16400 µM); Solubility in DMSO, Lab 2 [1, 13]: 5000 µg/mL (≈ 16400 µM); Solubility in DMSO, Lab 3 [1, 14]: 15000 µg/mL (≈ 49300 µM); Solubility in DMSO, Lab 4 [1, 15]: 15000 µg/mL (≈ 49300 µM); Solubility in medium, Lab 1 ([1]; assay medium, Lab 1): 5 µg/mL (≈ 16.4 µM); Solubility in medium, Lab 2 ([1]; assay medium, Lab 2): 5 µg/mL (≈ 16.4 µM); Solubility in medium, Lab 3 ([1]; assay medium, Lab 3): 5 µg/mL (≈ 16.4 µM); Solubility in medium, Lab 4 ([1]; assay medium, Lab 4): 5 µg/mL (≈ 16.4 µM)
9 | CC(=O)S[C@@H]1CC2=CC(=O)CC[C@]2(C)[C@H]2CC[C@@]3(C)[C@@H](CC[C@@]34CCC(=O)O4)[C@H]12 [Spironolactone] | 15000 (≈ 36000 µM) | > 50000 | > 50000 | > 50000 | 15 (≈ 36 µM) | > 50 | > 50 | > 50 |  |  |  |  |  |  |  |  | 
10 | CCCCOC(=O)c1ccccc1C(=O)OCc1ccccc1 [Benzylbutyl phthalate] |  |  |  |  |  |  |  |  | 1.5 (≈ 4.8 µM) | > 50 | 15 (≈ 48 µM) | 15 (≈ 48 µM) | > 50000 | > 50000 | > 50000 | > 50000 | 
